# According to PubChem BioAssay (NCI):
#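 A five-concentration, 48-hour dose response in 96-well plates underlies each endpoint, interpolated linearly between surrounding concentrations. At the GI50, growth is halved. TGI: total growth inhibition.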
# Experiments:
# Experiment in all cases: NCI-60 cell line screen, 48 h
# 786-0 renal = system: 786-0 renal
# A549 NSCLC = system: A549 NSCLC
# ACHN renal = system: ACHN renal
# BT-549 breast = system: BT-549 breast
# CAKI-1 renal = system: CAKI-1 renal
# CCRF-CEM leukemia = system: CCRF-CEM leukemia
# COLO 205 colon = system: COLO 205 colon
# DU-145 prostate = system: DU-145 prostate
# EKVX NSCLC = system: EKVX NSCLC
# HCT-116 colon = system: HCT-116 colon
# HCT-15 colon = system: HCT-15 colon
# HL-60(TB) leukemia = system: HL-60(TB) leukemia
# HOP-62 NSCLC = system: HOP-62 NSCLC
# HOP-92 NSCLC = system: HOP-92 NSCLC
# HT29 colon = system: HT29 colon
# IGROV1 ovarian = system: IGROV1 ovarian
# KM12 colon = system: KM12 colon
# LOX IMVI melanoma = system: LOX IMVI melanoma
# M14 melanoma = system: M14 melanoma
# MALME-3M melanoma = system: MALME-3M melanoma
# MCF7 breast = system: MCF7 breast
# MDA-MB-231 breast = system: MDA-MB-231 breast
# MDA-MB-435 = system: MDA-MB-435
# MOLT-4 leukemia = system: MOLT-4 leukemia
# NCI-H226 lung = system: NCI-H226 lung
# NCI-H23 lung = system: NCI-H23 lung
# NCI-H460 lung = system: NCI-H460 lung
# NCI-H522 lung = system: NCI-H522 lung
# NCI/ADR-RES ovarian = system: NCI/ADR-RES ovarian
# OVCAR-3 ovarian = system: OVCAR-3 ovarian
# OVCAR-4 ovarian = system: OVCAR-4 ovarian
# OVCAR-5 ovarian = system: OVCAR-5 ovarian
# OVCAR-8 ovarian = system: OVCAR-8 ovarian
# PC-3 prostate = system: PC-3 prostate
# RPMI-8226 leukemia = system: RPMI-8226 leukemia
# RXF 393 renal = system: RXF 393 renal
# SF-268 CNS = system: SF-268 CNS
# SF-295 CNS = system: SF-295 CNS
# SK-MEL-2 melanoma = system: SK-MEL-2 melanoma
# SK-MEL-28 melanoma = system: SK-MEL-28 melanoma
# SK-MEL-5 melanoma = system: SK-MEL-5 melanoma
# SK-OV-3 ovarian = system: SK-OV-3 ovarian
# SN12C renal = system: SN12C renal
# SNB-19 CNS = system: SNB-19 CNS
# SW-620 colon = system: SW-620 colon
# T-47D breast = system: T-47D breast
# TK-10 renal = system: TK-10 renal
# U251 CNS = system: U251 CNS
# UACC-257 melanoma = system: UACC-257 melanoma
# UACC-62 melanoma = system: UACC-62 melanoma
# UO-31 renal = system: UO-31 renal
structure (smiles),measurement,setting,value
Cc1cc2c(cc1Cl)SC1=CC(=O)N(c3ccccc3)C1=NS2(=O)=O,GI50,786-0 renal,27.5 µM
same,TGI,786-0 renal,71.6 µM
same,GI50,A549 NSCLC,> 100 µM
same,TGI,A549 NSCLC,> 100 µM
same,GI50,ACHN renal,26.6 µM
same,TGI,ACHN renal,> 100 µM
same,GI50,BT-549 breast,30 µM
same,TGI,BT-549 breast,65.3 µM
same,GI50,CAKI-1 renal,> 100 µM
same,TGI,CAKI-1 renal,> 100 µM
same,GI50,CCRF-CEM leukemia,24.8 µM
same,TGI,CCRF-CEM leukemia,95.5 µM
same,GI50,COLO 205 colon,26.4 µM
same,TGI,COLO 205 colon,67 µM
same,GI50,DU-145 prostate,59.4 µM
same,TGI,DU-145 prostate,> 100 µM
same,GI50,EKVX NSCLC,> 100 µM
same,TGI,EKVX NSCLC,> 100 µM
same,GI50,HCT-116 colon,30.9 µM
same,TGI,HCT-116 colon,> 100 µM
same,GI50,HCT-15 colon,> 100 µM
same,TGI,HCT-15 colon,> 100 µM
same,GI50,HL-60(TB) leukemia,23.8 µM
same,TGI,HL-60(TB) leukemia,63.8 µM
same,GI50,HOP-62 NSCLC,46 µM
same,TGI,HOP-62 NSCLC,> 100 µM
same,GI50,HOP-92 NSCLC,34.3 µM
same,TGI,HOP-92 NSCLC,> 100 µM
same,GI50,HT29 colon,21.5 µM
same,TGI,HT29 colon,67.8 µM
same,GI50,IGROV1 ovarian,53.9 µM
same,TGI,IGROV1 ovarian,> 100 µM
same,GI50,KM12 colon,26.1 µM
same,TGI,KM12 colon,67.3 µM
same,GI50,LOX IMVI melanoma,26.2 µM
same,TGI,LOX IMVI melanoma,61.1 µM
same,GI50,M14 melanoma,21 µM
same,TGI,M14 melanoma,42.8 µM
same,GI50,MALME-3M melanoma,44.6 µM
same,TGI,MALME-3M melanoma,> 100 µM
same,GI50,MCF7 breast,39.4 µM
same,TGI,MCF7 breast,> 100 µM
same,GI50,MDA-MB-231 breast,43.7 µM
same,TGI,MDA-MB-231 breast,> 100 µM
same,GI50,MDA-MB-435,> 100 µM
same,TGI,MDA-MB-435,> 100 µM
same,GI50,MOLT-4 leukemia,31.7 µM
same,TGI,MOLT-4 leukemia,> 100 µM
same,GI50,NCI-H226 lung,66.7 µM
same,TGI,NCI-H226 lung,> 100 µM
same,GI50,NCI-H23 lung,> 100 µM
same,TGI,NCI-H23 lung,> 100 µM
same,GI50,NCI-H460 lung,59.5 µM
same,TGI,NCI-H460 lung,> 100 µM
same,GI50,NCI-H522 lung,67.1 µM
same,TGI,NCI-H522 lung,> 100 µM
same,GI50,NCI/ADR-RES ovarian,37.8 µM
same,TGI,NCI/ADR-RES ovarian,> 100 µM
same,GI50,OVCAR-3 ovarian,> 100 µM
same,TGI,OVCAR-3 ovarian,> 100 µM
same,GI50,OVCAR-4 ovarian,65.3 µM
same,TGI,OVCAR-4 ovarian,> 100 µM
same,GI50,OVCAR-5 ovarian,> 100 µM
same,TGI,OVCAR-5 ovarian,> 100 µM
same,GI50,OVCAR-8 ovarian,57.1 µM
same,TGI,OVCAR-8 ovarian,> 100 µM
same,GI50,PC-3 prostate,37.4 µM
same,TGI,PC-3 prostate,> 100 µM
same,GI50,RPMI-8226 leukemia,14.4 µM
same,TGI,RPMI-8226 leukemia,36.5 µM
same,GI50,RXF 393 renal,> 100 µM
same,TGI,RXF 393 renal,> 100 µM
same,GI50,SF-268 CNS,92.3 µM
same,TGI,SF-268 CNS,> 100 µM
same,GI50,SF-295 CNS,> 100 µM
same,TGI,SF-295 CNS,> 100 µM
same,GI50,SK-MEL-2 melanoma,51.4 µM
same,TGI,SK-MEL-2 melanoma,> 100 µM
same,GI50,SK-MEL-28 melanoma,16.9 µM
same,TGI,SK-MEL-28 melanoma,40.9 µM
same,TGI,SK-MEL-5 melanoma,10.8 µM
same,GI50,SK-OV-3 ovarian,> 100 µM
same,TGI,SK-OV-3 ovarian,> 100 µM
same,GI50,SN12C renal,32 µM
same,TGI,SN12C renal,> 100 µM
same,GI50,SNB-19 CNS,54.5 µM
same,TGI,SNB-19 CNS,> 100 µM
same,GI50,SW-620 colon,33.1 µM
same,TGI,SW-620 colon,> 100 µM
same,GI50,T-47D breast,13 µM
same,TGI,T-47D breast,65.1 µM
same,GI50,TK-10 renal,21.6 µM
same,TGI,TK-10 renal,60.3 µM
same,GI50,U251 CNS,57.5 µM
same,TGI,U251 CNS,> 100 µM
same,GI50,UACC-257 melanoma,51.5 µM
same,TGI,UACC-257 melanoma,> 100 µM
same,GI50,UACC-62 melanoma,33 µM
same,TGI,UACC-62 melanoma,> 100 µM
same,GI50,UO-31 renal,54 µM
same,TGI,UO-31 renal,> 100 µM
